Experimental data taken from patent US11254667B2 (priority 2016, dated 2022).
pIC50, pKd: −log10 of the molar value. Converted amounts (≈) assume the structure as drawn. Where two headings read alike, the source gives them in different places.

Assays:
RET = RET (Homo sapiens (Human), UniProt P07949); experiment: biochemical; details: 10 μM ATP
PDGFRβ = PDGFRβ (Homo sapiens (Human), UniProt P09619); experiment: biochemical; details: 10 μM ATP
physchem = details: pH 7.4, aqueous buffer, kinetic from dmso stock
SRPK1 = SRPK1 (Homo sapiens (Human), UniProt Q96SB4); experiment: biochemical
in vivo = details: NRG/NRGS, mouse, ip, 30 mg/kg
BLK = BLK (Homo sapiens (Human), UniProt P51451); experiment: biochemical; details: 10 μM ATP
Phospho (P)-STAT5 = experiment: P-STAT5 AlphaLISA assay in MV4;11 cells; type: cell-based; details: Homo sapiens, read-out: IC50 of STAT5 phosphorylation
MA9-NRas cells = experiment: NRAS IC50 (MA9-NRas cells); type: cell-based
IRAK1 [1] = target: T1, IRAK1 (Homo sapiens (Human), UniProt P51617); experiment: biochemical; details: read-out: IC50 IRAK1
CDK7/cyclin H = CDK7/cyclin H (Homo sapiens (Human), UniProt P50613); experiment: biochemical
IRAK1 [2] = target: T1, IRAK1; experiment: Kd kinase binding assay IRAK1
LCK = LCK (Homo sapiens (Human), UniProt P06239); experiment: biochemical; details: 10-dose IC50 mode, 10 μM ATP
[3] = MV4;11 cells, 5 hours, AlphaLISA
[4] = Homo sapiens, read-out: NRAS IC50
[5] = Homo sapiens; read-out: NRAS IC50

Chain of RET (P07949 29-1114 limits assumed): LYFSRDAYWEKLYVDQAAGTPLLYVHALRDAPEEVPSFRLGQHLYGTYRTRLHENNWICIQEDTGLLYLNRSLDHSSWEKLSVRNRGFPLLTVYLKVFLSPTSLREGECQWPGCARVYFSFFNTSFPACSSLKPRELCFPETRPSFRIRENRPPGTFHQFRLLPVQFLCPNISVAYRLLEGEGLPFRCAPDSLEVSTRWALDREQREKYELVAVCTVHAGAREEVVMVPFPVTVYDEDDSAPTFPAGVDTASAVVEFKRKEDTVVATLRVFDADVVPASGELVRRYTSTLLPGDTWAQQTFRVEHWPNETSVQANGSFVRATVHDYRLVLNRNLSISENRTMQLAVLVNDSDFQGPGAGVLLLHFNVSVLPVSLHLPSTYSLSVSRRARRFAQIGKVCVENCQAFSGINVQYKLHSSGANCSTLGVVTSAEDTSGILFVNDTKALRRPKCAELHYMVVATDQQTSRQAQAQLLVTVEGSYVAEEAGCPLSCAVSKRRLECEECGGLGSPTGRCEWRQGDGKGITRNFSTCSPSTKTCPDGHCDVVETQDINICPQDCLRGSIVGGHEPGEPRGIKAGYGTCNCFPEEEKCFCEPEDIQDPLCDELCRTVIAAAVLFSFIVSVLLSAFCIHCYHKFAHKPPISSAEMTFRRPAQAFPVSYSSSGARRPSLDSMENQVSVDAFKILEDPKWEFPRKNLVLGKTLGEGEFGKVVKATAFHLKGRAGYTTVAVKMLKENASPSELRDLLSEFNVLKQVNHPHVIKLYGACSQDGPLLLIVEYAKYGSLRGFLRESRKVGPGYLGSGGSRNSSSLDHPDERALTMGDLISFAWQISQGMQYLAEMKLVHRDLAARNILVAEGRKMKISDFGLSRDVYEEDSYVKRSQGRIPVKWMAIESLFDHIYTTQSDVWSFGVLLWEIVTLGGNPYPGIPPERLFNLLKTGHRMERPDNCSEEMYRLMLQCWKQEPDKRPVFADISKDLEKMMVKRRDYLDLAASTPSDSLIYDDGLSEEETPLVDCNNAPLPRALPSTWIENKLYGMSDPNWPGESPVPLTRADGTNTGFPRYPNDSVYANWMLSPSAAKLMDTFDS
Chain of PDGFRβ (P09619 33-1106 limits assumed): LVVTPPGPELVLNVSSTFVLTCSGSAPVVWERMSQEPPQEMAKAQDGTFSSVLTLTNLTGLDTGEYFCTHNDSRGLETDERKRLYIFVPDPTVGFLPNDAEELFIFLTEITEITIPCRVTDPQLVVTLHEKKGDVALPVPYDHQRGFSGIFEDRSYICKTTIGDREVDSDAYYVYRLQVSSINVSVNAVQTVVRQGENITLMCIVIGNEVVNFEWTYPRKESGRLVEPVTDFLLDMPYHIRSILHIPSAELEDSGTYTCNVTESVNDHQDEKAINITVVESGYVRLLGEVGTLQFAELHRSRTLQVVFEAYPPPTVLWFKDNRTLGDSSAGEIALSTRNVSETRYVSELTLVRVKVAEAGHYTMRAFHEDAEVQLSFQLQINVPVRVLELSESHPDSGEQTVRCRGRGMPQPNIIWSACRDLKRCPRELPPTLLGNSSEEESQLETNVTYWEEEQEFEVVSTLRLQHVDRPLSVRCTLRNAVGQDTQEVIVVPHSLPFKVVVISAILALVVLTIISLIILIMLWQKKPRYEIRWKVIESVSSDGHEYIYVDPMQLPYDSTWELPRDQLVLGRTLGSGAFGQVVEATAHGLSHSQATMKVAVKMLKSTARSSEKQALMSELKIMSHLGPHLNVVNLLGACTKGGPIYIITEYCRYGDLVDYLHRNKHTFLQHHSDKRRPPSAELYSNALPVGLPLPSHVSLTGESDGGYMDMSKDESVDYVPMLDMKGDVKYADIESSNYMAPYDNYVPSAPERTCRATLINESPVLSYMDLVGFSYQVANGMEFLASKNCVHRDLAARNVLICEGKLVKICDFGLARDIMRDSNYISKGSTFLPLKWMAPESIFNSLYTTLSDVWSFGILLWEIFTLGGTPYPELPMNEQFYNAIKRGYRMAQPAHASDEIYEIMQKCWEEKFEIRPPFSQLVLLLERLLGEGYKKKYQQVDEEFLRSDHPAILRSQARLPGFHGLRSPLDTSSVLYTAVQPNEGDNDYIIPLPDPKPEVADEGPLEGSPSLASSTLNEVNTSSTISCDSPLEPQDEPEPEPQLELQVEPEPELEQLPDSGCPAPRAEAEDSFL

Row | Compound | solubility (physchem) | Stability (rat) | pIC50 (MA9-NRas cells; [4]) | other results
1 | Clc1ccc2ncc(-c3cccc(NC4CCNCC4)n3)n2c1 [Compound I-2, 6-(6-chloroimidazo[1,2-a]pyridin-3-yl)-N-(piperidin-4-yl)pyridin-2-amine] | > 48 µg/mL | […] |  | pIC50 (RET; IC50 RET): 9.22; pIC50 (RET; IC50 RET, 10-dose IC50 mode): 5.89; pIC50 (PDGFRβ; IC50 PDGFRb, 10-dose IC50 mode): 8.45; pIC50 (PDGFRβ; IC50 PDGFRβ): […]; solubility kinetic (physchem): > 48 µM; pIC50 (SRPK1): […]; AUC(0-inf) (in vivo): 4630 ng·h/mL; Cmax (in vivo): 1710 ng/mL; Tmax (in vivo): […]; half-life (in vivo): 198 min; pIC50 (BLK; IC50 BLK): […]; pIC50 (BLK; IC50 BLK, 10-dose IC50 mode): […]
2 | Clc1ccc2ncc(-c3cccc(NC4CNC4)n3)n2c1 [Compound I-15, N-(azetidin-3-yl)-6-(6-chloroimidazo[1,2-a]pyridin-3-yl)pyridin-2-amine] | > 44 µg/mL |  | 4.78 | pIC50 (Phospho (P)-STAT5; [3]): 8.77; Stability: 13 min
3 | Clc1ccc2ncc(-c3cccc(NC4CCNC4)n3)n2c1 (centres unmarked) [Compound I-16, 6-(6-chloroimidazo[1,2-a]pyridin-3-yl)-N-(pyrrolidin-3-yl)pyridin-2-amine] | > 46 µg/mL | 25.6 min | 5.75 | 
4 | Clc1ccc2ncc(-c3cccc(NC4CCCNC4)n3)n2c1 (centres unmarked) [Compound I-17, 6-(6-chloroimidazo[1,2-a]pyridin-3-yl)-N-(piperidin-3-yl)pyridin-2-amine] | > 48 µg/mL | >30.0 min |  | pIC50 (RET; IC50 RET, 10-dose IC50 mode): 7.98; pIC50 (PDGFRβ; IC50 PDGFRb, 10-dose IC50 mode): 7.17; pIC50 (IRAK1 [1]): 5.83; pIC50 (SRPK1): 5.12; pIC50 (CDK7/cyclin H): 6.23; pIC50 (BLK; IC50 BLK, 10-dose IC50 mode): 7.39; pKd (IRAK1 [2]): 6.82; pIC50 (LCK): 6.78
5 | COc1cc2ncc(-c3cccc(NC4CCNC4)n3)n2cc1-c1cccnc1 (centres unmarked) [Compound I-22, 6-(7-methoxy-6-(pyridin-3-yl)imidazo[1,2-a]pyridin-3-yl)-N-(pyrrolidin-3-yl)pyridin-2-amine] | 29 µg/mL (≈ 75 µM) |  |  | solubility kinetic (physchem): 29 µM (≈ 11.2 µg/mL); AUC(0-inf) (in vivo): 4850 ng·h/mL; Cmax (in vivo): 1540 ng/mL; Tmax (in vivo): 30 min
6 | COc1cc2ncc(-c3cccc(NC4CCNC4)n3)n2cc1-c1ccncc1 (centres unmarked) [Compound I-23, 6-(7-methoxy-6-(pyridin-4-yl)imidazo[1,2-a]pyridin-3-yl)-N-(pyrrolidin-3-yl)pyridin-2-amine] | 11.6 µg/mL (≈ 30 µM) | >30.0 min | 5.74 | 
7 | COc1cc2ncc(-c3cccc(NC4CCNC4)n3)n2cc1-c1c(C)n[nH]c1C (centres unmarked) [Compound I-25, 6-(6-(3,5-dimethyl-1H-pyrazol-4-yl)-7-methoxyimidazo[1,2-a]pyridin-3-yl)-N-(pyrrolidin-3-yl)pyridin-2-amine] | > 60 µg/mL | >30.0 min |  | pIC50 (MA9-NRas cells; [5]): 4.80
8 | COc1cc2ncc(-c3cccc(NC4CCNC4)n3)n2cc1-c1cnn(CCN2CCOCC2)c1 (centres unmarked) [Compound I-26] | > 72 µg/mL | >30.0 min | 4.80 | 
9 | COc1cc2ncc(-c3cccc(NC4CCNC4)n3)n2cc1-c1cc[nH]c1 (centres unmarked) [Compound I-27, 6-(7-methoxy-6-(1H-pyrrol-3-yl)imidazo[1,2-a]pyridin-3-yl)-N-(pyrrolidin-3-yl)pyridin-2-amine] | 34.3 µg/mL (≈ 91.6 µM) | >30.0 min | 5.35 | 
10 | COc1cc2ncc(-c3cccc(NC4CCNC4)n3)n2cc1-c1c(C)noc1C (centres unmarked) [Compound I-28, 6-(6-(3,5-dimethylisoxazol-4-yl)-7-methoxyimidazo[1,2-a]pyridin-3-yl)-N-(pyrrolidin-3-yl)pyridin-2-amine] | > 60 µg/mL | 15.7 min |  | pIC50 (MA9-NRas cells; [5]): 4.83
11 | COc1cc2ncc(-c3cccc(NC4CCCNC4)n3)n2cc1-c1cn[nH]c1 (centres unmarked) [Compound I-29, 6-(7-methoxy-6-(1H-pyrazol-4-yl)imidazo[1,2-a]pyridin-3-yl)-N-(piperidin-3-yl)pyridin-2-amine] | 35.6 µg/mL (≈ 91.4 µM) | 9.8 min | 5.03 | 
12 | COc1cc2ncc(-c3cccc(N(C)C4CCNC4)n3)n2cc1-c1cn[nH]c1 (centres unmarked) [Compound I-31, 6-(7-methoxy-6-(1H-pyrazol-4-yl)imidazo[1,2-a]pyridin-3-yl)-N-methyl-N-(pyrrolidin-3-yl)pyridin-2-amine] | 14.1 µg/mL (≈ 36.2 µM) | 11.5 min |  | pIC50 (MA9-NRas cells; [5]): 4.78
13 | COc1cc2ncc(-c3cccc(OC4CCNC4)n3)n2cc1-c1cn[nH]c1 (centres unmarked) [Compound I-32, 7-methoxy-6-(1H-pyrazol-4-yl)-3-(6-(pyrrolidin-3-yloxy)pyridin-2-yl)imidazo[1,2-a]pyri-dine] | 8.2 µg/mL (≈ 21.8 µM) | 7.7 min | 5.43 | 
14 | COc1cc2ncc(-c3nc(NC4CCNC4)c(F)cc3F)n2cc1-c1cn[nH]c1 (centres unmarked) [Compound I-33, 3,5-difluoro-6-(7-methoxy-6-(1H-pyrazol-4-yl)imidazo[1,2-a]pyridin-3-yl)-N-(pyrrolidin-3-yl)pyridin-2-amine] | 3.9 µg/mL (≈ 9.48 µM) | 9.3 min | 4.53 | 
15 | COc1cc2ncc(-c3cccc(NC4CCNC4)n3)n2cc1OC (centres unmarked) [Compound I-36] | > 50 µg/mL | >30.0 min | 5.35 | 
16 | COc1cc(-c2cn[nH]c2)cn2c(-c3cccc(NC4CCNC4)n3)cnc12 (centres unmarked) [Compound I-37] | > 55 µg/mL | 2.3 min | 4.78 | 
17 | COc1cc2ncc(-c3cccc(NC4CCNC4)n3)n2cc1-c1nnn[nH]1 (centres unmarked) [Compound I-38] | > 56 µg/mL | >30.0 min | 8.70 | 
18 | COc1cc2ncc(-c3cccc(NC4CCNC4)n3)n2cc1C#N (centres unmarked) [Compound I-39] | 10.6 µg/mL (≈ 31.7 µM) | 8.8 min | 5.25 | 
19 | Clc1cn2c(-c3cccc(NC4CCNC4)n3)cnc2cc1OCCN1CCOCC1 (centres unmarked) [Compound I-40] | > 65 µg/mL | >30.0 min | 6.20 | 
20 | c1cc(NC2CCNC2)nc(-c2cnc3cc(OCCN4CCOCC4)c(-c4cn[nH]c4)cn23)c1 (centres unmarked) [Compound I-41, 6-(7-(2-morpholinoethoxy)-6-(1H-pyrazol-4-yl)imidazo[1,2-a]pyridin-3-yl)-N-(pyrrolidin-3-yl)pyridin-2-amine] | > 70 µg/mL | >30.0 min | 4.75 | 
21 | COc1cc(Cl)cn2c(-c3cccc(NC4CNC4)n3)cnc12 [Compound I-42, N-(azetidin-3-yl)-6-(6-chloro-8-methoxyimidazo[1,2-a]pyridin-3-yl)pyridin-2-amine] | > 49 µg/mL |  | 4.68 | Stability: >30 min
22 | c1cc(N[C@@H]2CCNC2)nc(-c2cnc3ccc(-c4cn[nH]c4)cn23)c1 [Compound I-43] | 40.1 µg/mL (≈ 116 µM) |  |  | pIC50 (Phospho (P)-STAT5; [3]): 8.18; Stability: 5.7 min
23 | c1cc(NC2CNC2)nc(-c2cnc3ccc(-c4cn[nH]c4)cn23)c1 [Compound I-45] | > 49 µg/mL |  | 5.37 | 
24 | Cn1cc(-c2ccc3ncc(-c4cccc(NC5CNC5)n4)n3c2)cn1 [Compound I-46] | 43.1 µg/mL (≈ 125 µM) | >30.0 min | 4.78 | 
25 | Fc1cc(F)c(-c2cnc3ccc(Cl)cn23)nc1NC1CNC1 [Compound I-47] | > 50 µg/mL | >30.0 min | 5.73 | 
26 | C#Cc1cn2c(-c3cccc(NC4CCNC4)n3)cnc2cc1OC (centres unmarked) [Compound I-68, 6-(6-ethynyl-7-methoxyimidazo[1,2-a]pyridin-3-yl)-N-(pyrrolidin-3-yl)pyridin-2-amine] | > 49 µg/mL | 11.6 min |  | 
27 | CC1(COc2ccc3c(c2)ncn3-c2ccc3cccc(N4CCC(N)CC4)c3n2)COC1 [Crenolinib, reference compound] |  |  |  | pIC50 (RET; 10-dose IC50 mode, read-out: IC50 RET): 7.86; pIC50 (SRPK1; 10-dose IC50 mode, 10 μM ATP, read-out: IC50 SRPK1): 4.66; pIC50 (BLK; 10-dose IC50 mode, read-out: IC50 BLK): 7.68
28 | CC(C)(C)c1cc(NC(=O)Nc2ccc(-c3cn4c(n3)sc3cc(OCCN5CCOCC5)ccc34)cc2)no1 [quizartinib, reference compound] |  |  |  | pIC50 (Phospho (P)-STAT5; MV4-11, 5 h): 7.93
